# In US20240018133A1, “MODULATORS OF THE INTEGRATED STRESS PATHWAY” (Calico Life Sciences LLC, priority 2019, published 2024):
# Tested on: ATF4 luciferase reporter (human full-length ATF4 5'-UTR fused to firefly luciferase) in HEK293T cells
# Test: ATF4-Luc assay (in vitro model of VWMD): HEK293T cells carrying ATF4 luciferase reporter, tunicamycin-treated
# Assay type: cell-based
# Conditions: 1 μg/mL tunicamycin, 7 hours, One Glo luminescence
# Experimental: In order to test exemplary compounds of the invention in a cellular context, a stable VWMD cell line was first constructed. The ATF4 reporter was prepared by fusing the human full-length ATF4 5′-UTR (NCBI Accession No. BC022088.2) in front of the firefly luciferase (FLuc) coding sequence lacking the initiator methionine as described in Sidrauski et al (eLife 2013). The construct was used to produce recombinant retroviruses using standard methods and the resulting viral supernatant was used to transduce HEK293T cells, which were then subsequently selected with puromycin to generate a stable cell line.
# HEK293T cells carrying the ATF4 luciferase reporter were plated on polylysine coated 384-well plates (Greiner Bio-one) at 30,000 cells per well. Cells were treated the next day with 1 μg/mL tunicamycin and 200 nM of a compound of Formula (I) for 7 hours. Luminescence was measured using One Glo (Promega) as specified by the manufacturer. Cells were maintained in DMEM with L-glutamine supplemented with 10% heat-inactivated FBS (Gibco) and Antibiotic-Antimycotic solution (Gibco).
# Table 2 below summarizes the EC50 data obtained using the ATF4-Luc assay for exemplary compounds of the invention.
smiles,measurement,setting,value
"O=C(COc1ccc(Cl)c(F)c1)N[C@H]1C[C@H]2C[C@@H]1C[C@@H]2NC(=O)[C@H]1CC(=O)c2cc(Cl)ccc2O1 (mixture of isomers) [Compound 368, (2R)-6-chloro-N-{(1RS,2SR,4RS,5SR)-5-[2-(4-chloro-3-fluorophenoxy)acetamido]bicyclo[2.2.1]heptan-2-yl}-4-oxo-3,4-dihydro-2H-1-benzopyran-2-carboxamide]",EC50,"Homo sapiens, HEK-293T",< 10 nM
"O=C(COc1ccc(Cl)c(F)c1)NC12CC(NC(=O)[C@@H]3C[C@H](O)c4cc(Cl)ccc4O3)(C1)C2 (racemic) [Compound 190, rac-(2R,4R)-6-chloro-N-{3-[2-(4-chloro-3-fluorophenoxy)acetamido]bicyclo[1.1.1]pentan-1-yl}-4-hydroxy-3,4-dihydro-2H-1-benzopyran-2-carboxamide]",EC50,"Homo sapiens, HEK-293T",< 10 nM
"O=C(COc1ccc(Cl)c(F)c1)NC12CC(NC(=O)C3CC(N[C@H]4C[C@@H](O)C4)c4cc(Cl)ccc4O3)(C1)C2 (mixture of isomers) [Compound 209, 6-chloro-N-{3-[2-(4-chloro-3-fluorophenoxy)acetamido]bicyclo[1.1.1]pentan-1-yl}-4-{[(1s,3s)-3-hydroxycyclobutyl]amino}-3,4-dihydro-2H-1-benzopyran-2-carboxamide]",EC50,"Homo sapiens, HEK-293T",50 to 250 nM
"O=C(NC12CC(NC(=O)[C@H]3C[C@@H](O)c4cc(Cl)ccc4O3)(C1)C2)c1cnc(C(F)F)cn1 (racemic) [Compound 218, N-(3-{[rac-(2R,4R)-6-chloro-4-hydroxy-3,4-dihydro-2H-1-benzopyran-2-carbonyl]amino}bicyclo[1.1.1]pentan-1-yl)-5-(difluoromethyl)pyrazine-2-carboxamide]",EC50,"Homo sapiens, HEK-293T",10 to 50 nM
"O=C(COc1ccc(Cl)c(F)c1)NC12CC(NC(=O)[C@H]3C[C@@H](O)c4cc(Cl)c(F)cc4O3)(C1)C2 (racemic) [Compound 234, rac-(2R,4R)-6-chloro-N-{3-[2-(4-chloro-3-fluorophenoxy)acetamido]bicyclo[1.1.1]pentan-1-yl}-7-fluoro-4-hydroxy-3,4-dihydro-2H-1-benzopyran-2-carboxamide]",EC50,"Homo sapiens, HEK-293T",< 10 nM
"O=C(COc1ccc(Cl)c(F)c1)NC12CC(NC(=O)[C@H]3C[C@@H](O)c4cc(F)c(F)cc4O3)(C1)C2 (racemic) [Compound 249, rac-(2R,4R)—N-{3-[2-(4-chloro-3-fluorophenoxy)acetamido]bicyclo[1.1.1]pentan-1-yl}-6,7-difluoro-4-hydroxy-3,4-dihydro-2H-1-benzopyran-2-carboxamide]",EC50,"Homo sapiens, HEK-293T",< 10 nM
"C[C@]1(C(=O)NC23CC(NC(=O)COc4ccc(Cl)c(F)c4)(C2)C3)C[C@H](O)c2cc(Cl)ccc2O1 (racemic) [Compound 250, rac-(2R,4S)-6-chloro-N-{3-[2-(4-chloro-3-fluorophenoxy)acetamido]bicyclo[1.1.1]pentan-1-yl}-4-hydroxy-2-methyl-3,4-dihydro-2H-1-benzopyran-2-carboxamide]",EC50,"Homo sapiens, HEK-293T",50 to 250 nM
"C[C@]1(C(=O)NC23CC(NC(=O)COc4ccc(Cl)c(F)c4)(C2)C3)C[C@@H](O)c2cc(Cl)ccc2O1 (racemic) [Compound 251, rac-(2R,4R)-6-chloro-N-{3-[2-(4-chloro-3-fluorophenoxy)acetamido]bicyclo[1.1.1]pentan-1-yl}-4-hydroxy-2-methyl-3,4-dihydro-2H-1-benzopyran-2-carboxamide]",EC50,"Homo sapiens, HEK-293T",10 to 50 nM
"O=C(NC12CCC(NC(=O)[C@H]3C[C@@H](O)c4cc(Cl)ccc4O3)(C1)C2)c1ccc(OC(F)(F)F)cn1 (racemic) [Compound 293, N-(4-{[rac-(2R,4R)-6-chloro-4-hydroxy-3,4-dihydro-2H-1-benzopyran-2-carbonyl]amino}bicyclo[2.1.1]hexan-1-yl)-5-(trifluoromethoxy)pyridine-2-carboxamide]",EC50,"Homo sapiens, HEK-293T",10 to 50 nM
"O=C(COc1ccc(Cl)c(F)c1)NC12CCC(NC(=O)[C@H]3C[C@@H](O)c4cc(Cl)ccc4O3)(C1)C2 (racemic) [Compound 296, rac-(2R,4R)-6-chloro-N-{4-[2-(4-chloro-3-fluorophenoxy)acetamido]bicyclo[2.1.1]hexan-1-yl}-4-hydroxy-3,4-dihydro-2H-1-benzopyran-2-carboxamide]",EC50,"Homo sapiens, HEK-293T",< 10 nM
"O=C(COc1ccc(Cl)c(F)c1)NC12CC(NC(=O)[C@H]3C[C@H](NCCO)c4cc(Cl)ccc4O3)(C1)C2 (racemic) [Compound 301, rac-(2R,4S)-6-chloro-N-{3-[2-(4-chloro-3-fluorophenoxy)acetamido]bicyclo[1.1.1]pentan-1-yl}-4-[(2-hydroxyethyl)amino]-3,4-dihydro-2H-1-benzopyran-2-carboxamide]",EC50,"Homo sapiens, HEK-293T",< 10 nM
"O=C(NC12CCC(NC(=O)[C@H]3C[C@@H](O)c4cc(Cl)ccc4O3)(CC1)CC2)c1cnc(C(F)F)cn1 (racemic) [Compound 302, N-(4-{[rac-(2R,4R)-6-chloro-4-hydroxy-3,4-dihydro-2H-1-benzopyran-2-carbonyl]amino}bicyclo[2.2.2]octan-1-yl)-5-(difluoromethyl)pyrazine-2-carboxamide]",EC50,"Homo sapiens, HEK-293T",50 to 250 nM
"COc1ccc2c(n1)[C@H](O)C[C@H](C(=O)NC13CC(NC(=O)COc4ccc(Cl)c(F)c4)(C1)C3)O2 (racemic) [Compound 334, rac-(2R,4R)—N-{3-[2-(4-chloro-3-fluorophenoxy)acetamido]bicyclo[1.1.1]pentan-1-yl}-4-hydroxy-6-methoxy-3,4-dihydro-2H-pyrano[3,2-b]pyridine-2-carboxamide]",EC50,"Homo sapiens, HEK-293T",50 to 250 nM
"CO[C@@H]1C[C@H](C(=O)NC23CC(NC(=O)COc4ccc(Cl)c(F)c4)(C2)C3)Oc2ccc(Cl)cc21 (racemic) [Compound 340, rac-(2R,4R)-6-chloro-N-{3-[2-(4-chloro-3-fluorophenoxy)acetamido]bicyclo[1.1.1]pentan-1-yl}-4-methoxy-3,4-dihydro-2H-1-benzopyran-2-carboxamide]",EC50,"Homo sapiens, HEK-293T",< 10 nM
"O=C(COc1ccc(Cl)c(F)c1)NC12CC(NC(=O)[C@H]3C[C@H](NC4(CO)CC4)c4cc(Cl)ccc4O3)(C1)C2 (racemic) [Compound 343, rac-(2R,4S)-6-chloro-N-{3-[2-(4-chloro-3-fluorophenoxy)acetamido]bicyclo[1.1.1]pentan-1-yl}-4-{[1-(hydroxymethyl)cyclopropyl]amino}-3,4-dihydro-2H-1-benzopyran-2-carboxamide]",EC50,"Homo sapiens, HEK-293T",10 to 50 nM
"O=C(COc1ccc(Cl)c(F)c1)NC12CCC(NC(=O)[C@H]3C[C@@H](O)c4cc(Cl)ccc4O3)(CC1)NC2=O (racemic) [Compound 364, rac-(2R,4R)-6-chloro-N-{4-[2-(4-chloro-3-fluorophenoxy)acetamido]-3-oxo-2-azabicyclo[2.2.2]octan-1-yl}-4-hydroxy-3,4-dihydro-2H-1-benzopyran-2-carboxamide]",EC50,"Homo sapiens, HEK-293T",< 10 nM
"O=C(COc1ccc(Cl)c(F)c1)N[C@@H]1C[C@@H]2O[C@H]1C[C@H]2NC(=O)[C@@H]1C[C@@H](O)c2cc(Cl)ccc2O1 (racemic) [Compound 369, (2S,4R)-6-chloro-N-{(1RS,2SR,4RS,5SR)-5-[2-(4-chloro-3-fluorophenoxy)acetamido]-7-oxabicyclo[2.2.1]heptan-2-yl}-4-hydroxy-3,4-dihydro-2H-1-benzopyran-2-carboxamide]",EC50,"Homo sapiens, HEK-293T",10 to 50 nM
"O=C(COc1ccc(Cl)c(F)c1)N[C@@H]1C[C@@H]2O[C@H]1C[C@H]2NC(=O)[C@H]1C[C@@H](O)c2cc(Cl)ccc2O1 (racemic) [Compound 370, (2R,4R)-6-chloro-N-{(1RS,2SR,4RS,5SR)-5-[2-(4-chloro-3-fluorophenoxy)acetamido]-7-oxabicyclo[2.2.1]heptan-2-yl}-4-hydroxy-3,4-dihydro-2H-1-benzopyran-2-carboxamide]",EC50,"Homo sapiens, HEK-293T",< 10 nM
"O=C(COc1ccc(Cl)c(F)c1)N[C@@H]1C[C@@H]2C[C@H]1C[C@H]2NC(=O)[C@H]1C[C@@H](O)c2cc(Cl)ccc2O1 (racemic) [Compound 371, (2R,4R)-6-chloro-N-{(1RS,2SR,4RS,5SR)-5-[2-(4-chloro-3-fluorophenoxy)acetamido]bicyclo[2.2.1]heptan-2-yl}-4-hydroxy-3,4-dihydro-2H-1-benzopyran-2-carboxamide]",EC50,"Homo sapiens, HEK-293T",< 10 nM
"O=C(COc1ccc(Cl)c(F)c1)N[C@@H]1C[C@@H]2O[C@H]1C[C@H]2NC(=O)[C@@H]1C[C@H](O)c2cc(Cl)ccc2O1 (racemic) [Compound 372, (2S,4S)-6-chloro-N-{(1RS,2SR,4RS,5SR)-5-[2-(4-chloro-3-fluorophenoxy)acetamido]-7-oxabicyclo[2.2.1]heptan-2-yl}-4-hydroxy-3,4-dihydro-2H-1-benzopyran-2-carboxamide]",EC50,"Homo sapiens, HEK-293T",10 to 50 nM
"O=C(COc1ccc(Cl)c(F)c1)NC12CC(NC(=O)C3CNc4cc(Cl)ccc4O3)(C1)C2 (single isomer, unassigned) [Compound 102]",EC50,"Homo sapiens, HEK-293T",< 10 nM
"O=C(COc1ccc(Cl)c(F)c1)NC12CC(NC(=O)C3CNc4cc(Cl)ccc4O3)(C1)C2 (single isomer, unassigned) [Compound 103]",EC50,,< 10 nM
"CN1CC(C(=O)NC23CC(NC(=O)COc4ccc(Cl)c(F)c4)(C2)C3)Oc2ccc(Cl)cc21 (single isomer, unassigned) [Compound 104]",EC50,"Homo sapiens, HEK-293T",< 10 nM
"O=C(COc1ccc(Cl)c(F)c1)NC12CC(NC(=O)[C@@H]3C[C@H](O)c4cc(F)c(Cl)cc4O3)(C1)C2 (single isomer, unassigned) [Compound 205]",EC50,"Homo sapiens, HEK-293T",< 10 nM
"O=C(COc1ccc(Cl)c(F)c1)NC12CC(NC(=O)[C@H]3C[C@@H](O)c4cc(F)c(Cl)cc4O3)(C1)C2 (single isomer, unassigned) [Compound 206]",EC50,"Homo sapiens, HEK-293T",< 10 nM
